From patent US20080064663A1, “Melt processing of phosphoroamido(di)thioate insecticides” (priority 2006, published 2008) come the findings set out here.

This series in a line: Processing of acephate melt in oxygen free atmosphere: degradation. Format: physicochemical. On the procedure: In some embodiments, the acephate-containing composition can be processed for more than 30 minutes without substantially any detectable degradation.

As for `COP(=O)(NC(C)=O)SC` (centres unmarked) [acephate], the “reduction of the acephate stability during storage” value (after processing in molten state at 90° C. to 100° C. for 15 to 30 minutes under an effectively oxygen free atmosphere) is “without any reduction”. The “degradation of the acephate processed in a molten state” value (molten state at 90° C. to 100° C. for 15 minutes to 30 minutes under an effectively oxygen free atmosphere) is recorded as “without substantial or detectable degradation”.
